Assay: gradient 5% acetonitrile 3 min, to 50% in 2 min, to 85% in 15 min, held 3 min, 100 µL/min
Conditions: column: Zorbax Extend-C18 2.1 x 50 mm; eluents: water / acetonitrile, 0.1% formic acid
Method in brief: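 Values are retention times taken from adduct peaks that software picked and an analyst inspected. The pure standards were run as mixtures of ~100 molecules on HPLC linked to a quadrupole time-of-flight mass spectrometer, in positive and negative ionization mode. A Zorbax Extend-C18 column (2.1 × 50 mm, 1.8 μm) was used at 100 μL/min with water and acetonitrile, each including 0.1% formic acid.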

SMILES | RP-LC retention time [s]
O=C(Nc1ccc(F)cc1)N1CCCCCC1 | 738
Cc1cc(=O)c2cc(C(=O)c3ccccc3)ccc2[nH]1 | 718
CC(C)(C)C(=O)N1CCN(Cc2noc(-c3ccc(F)cc3)n2)CC1 | 712
Cc1noc2ncnc(N3CCCC(C(=O)N4CCN(c5ccc(Cl)cc5)CC4)C3)c12 (stereo unspecified) | 931
Clc1nc(Oc2ccccc2)nc(-c2cn(-c3ccccc3)c3ccccc23)n1 | 732
c1cnc(N2CCN(Cc3ccc4c(c3)OCO4)CC2)nc1 | 432
CC1Cc2ccccc2N1C(=O)C12CCC(C)(C(=O)O1)C2(C)C (stereo unspecified) | 1000
O=C(c1cccs1)N1CCN(c2nnc3ccccn23)CC1 | 608
Cn1ccc2cc(S(=O)(=O)N3CCC(C(=O)NC4CCN(Cc5ccccc5)CC4)CC3)ccc21 | 666
COc1cc(-c2noc(-c3nc(-c4ccc(C)cc4)no3)n2)cc(OC)c1OC | 1260
Cc1ccc(C(=O)Nc2nc(C)cc(C)c2-c2noc(C)n2)cc1 | 743
COc1ccc(Nc2nc(-c3nnn(-c4cc(Cl)c(OC)cc4OC)c3C)ns2)cc1 | 1020
CCC(C)NC(=O)CCn1c(=O)c2ccccc2n2c(=O)n(Cc3ccccc3F)nc12 (stereo unspecified) | 884
O=C(Nc1cnc(N2CCCCCC2)nc1)C1CC1 | 714
O=S(=O)(NCC(O)c1ccc(C(F)(F)F)cc1)c1ccc2c(c1)CCCC2 (stereo unspecified) | 984
Cc1ccc(-c2cc(C(=O)N3CCCC3)n(C)c2)cc1 | 965
COc1ccc(-c2ccc(=O)n(Cc3nc(-c4cccc(Cl)c4)no3)n2)cc1OC | 976
COc1ccc(Br)cc1S(=O)(=O)Nc1cc(-c2cn3ccccc3n2)ccc1C | 701
CC1CCN(C(=O)C2=NN(C(C)C)c3cc(Cl)ccc3S2(=O)=O)CC1 | 1020
CCOC(=O)C1CCN(C(=O)c2cn3c(n2)CCCC3)CC1 | 586

SMILES | RP-LC retention time [s]
O=C1NCCCCCCN(C(=O)c2cc(CN3CCOCC3)on2)[C@H]2CCCC[C@@H]12 | 621
Clc1ccc2nc(-c3cccc(Br)c3)c(Nc3ccc4c(c3)OCCO4)n2c1 | 972
Cc1cc(C)cc(NC(=O)Cn2c(C)nc3c(sc4nc(-c5ccccc5)ccc43)c2=O)c1 | 1050
CN(C)c1ccc(-c2nc3cnccn3c2Nc2ccc(Cl)cc2)cc1 | 880
Cc1ccc(CNC(=O)CN2C(=O)C3CCCCN3c3ccc(S(=O)(=O)N4CCCC4)cc32)o1 (stereo unspecified) | 905
O=C(NCCc1c[nH]c2ccccc12)c1noc2c1CSc1ccccc1-2 | 1130
COc1ccc(CN2C[C@@H]3C(=O)N(Cc4ccc5c(c4)OCO5)C(=O)[C@@H]3C2)cc1OC | 659
CC(NC(=O)c1nnc(-c2ccc(S(=O)(=O)N(C)C)cc2)o1)c1ccccn1 (stereo unspecified) | 683
Cc1ccc2c(c1)OCC(=O)N2Cc1nc(-c2ccc3c(c2)OCO3)no1 | 1030
O=C(CN1CCCC1=O)NCc1ccc(F)cc1Cl | 656
CC(=O)/C=C1\SC(CC(=O)O)C(=O)N1c1ccccc1 (stereo unspecified) | 631
CCCCN(C)C(=O)CC1Sc2ncccc2N(CC(C)C)C1=O (stereo unspecified) | 876
COCCCNS(=O)(=O)c1cc(-c2nc(C)cs2)n(CC(=O)N2CCCCC2)c1 | 824
CC(=O)CC(c1ccccc1)C1C(=O)Oc2ccccc2C1=O (stereo unspecified) | 1000
CCOC(=O)c1ccc(Nc2c(CC)c(C)nc3nc(-c4ccccc4)nn23)cc1 | 990
CC(C)c1ccc(Nc2c(-c3ccccc3O)nc3ncccn23)cc1 | 800
CCC(=O)N1CCc2cc(C(=O)N3CCCCCC3)ccc21 | 770
CCCCNC(=O)Cc1c(C)nn(-c2nc(-c3ccc(Cl)cc3)cs2)c1C | 1180
COCCN1C(=O)CCC2(C(=O)NCc3ccc(Cl)cc3)CCCC=C12 (stereo unspecified) | 787
CC(C)c1c(C(=O)O)nnn1-c1ccc(F)c(F)c1 | 762

Continued, values first:

RP-LC retention time [s] | SMILES
855 | COc1cc2c(cc1CNC(=O)c1ccc3c(c1)CC(C)O3)OCCCO2 (stereo unspecified)
941 | Cn1cc(C(=O)N2CC(Oc3ccc(-c4nc(-c5ccccc5)no4)cc3)C2)cn1
748 | CCNC(=O)NCCC1CCN(S(=O)(=O)c2ccc(C)cc2)CC1
644 | CC(NC(=O)C1CCN(CCc2cn(C)c3ncccc23)CC1)c1ccccc1 (stereo unspecified)
716 | Cc1ccc(Nc2nc3ccncc3n(C(C)C)c2=O)cc1C
730 | Cc1ccc(NC(=O)Nc2ccc3nncn3c2)cc1C
683 | COc1cc(-c2nc3ncccn3c2Nc2ccc(C)c(C)c2)ccc1O
1040 | Cc1cccc(Sc2nccnc2N2CCC(C(=O)NC3CCCC3)CC2)c1
537 | Cc1nn(C)cc1C(=O)Nc1nc2ccccc2[nH]1
905 | CCNC(=O)N1CCCC(c2cccc(C(=O)NCc3ccccc3C(F)(F)F)c2)C1 (stereo unspecified)
755 | O=C(NCCOc1ccccc1)Nc1cccs1
612 | Cc1cccc(NC(=O)c2ccc(N3CCCC3)nn2)n1
906 | CCn1c(C2CCN(S(=O)(=O)c3ccc(C(C)C)cc3)C2)nc2cccnc21 (stereo unspecified)
609 | CNC(=O)Cn1nc(C2CCN(C(=O)c3nccc4ccccc34)CC2)c2c1CCOC2
654 | O=C(Nc1ccc2c(c1)OCCO2)Nc1ccc2nc3n(c(=O)c2c1)CCC3
763 | Oc1c(C(Nc2ccccc2)c2ccccn2)ccc2cccnc12 (stereo unspecified)
1050 | CCc1nn(C)c(=O)c2cc(S(=O)(=O)N3CCC(Cc4ccccc4)CC3)cn12
759 | CCCC(=O)Nc1ccc(-c2nc(Cn3cccn3)c(C)o2)cc1
845 | COC(=O)c1cc(S(=O)(=O)N2CCCC2C(=O)NCc2ccccc2Cl)cn1C (stereo unspecified)
1130 | COc1cccc(-c2noc(C3CCCN3C(=O)Nc3cc(Cl)ccc3OC)n2)c1 (stereo unspecified)
696 | COc1cccc(NC(=O)NCCc2nc3cccnc3n2C2CCCC2)c1
912 | CCCn1cc(S(=O)(=O)NCc2ccc(F)cc2)c2cccnc21
725 | COc1ccc(N2CCN(C(=O)CN3C(=O)c4ccccc4Sc4ncccc43)CC2)cc1
672 | Cc1ccc(CNC(=O)c2cc(-c3ccncc3)cn2C)cc1C
842 | COc1cccc(CNC(=O)c2ccc3c(c2)N(C)C(=O)C2CCCCN32)c1 (stereo unspecified)
1080 | COc1ccc(-c2ccc(=O)n(Cc3nc(-c4ccc(Cl)c(F)c4)no3)n2)cc1

RP-LC retention time [s] | SMILES
681 | Cc1ccc2c(Nc3ccc(C)c(C)c3)c(C(=O)N3CCCC(C)C3)cnc2n1 (stereo unspecified)
618 | O=C(CSc1ncnc2nc[nH]c12)Nc1ccccc1C(F)(F)F
771 | O=C1C(c2cccnc2)N(CC2CCCCC2)C(=O)CN1c1ccccc1 (stereo unspecified)
748 | CCCOc1nccnc1NC1CCN(C(=O)c2ccco2)CC1
744 | O=C(CCc1ccccc1)Nc1cnc(N2CCOCC2)nc1
892 | Cn1cc(C(=O)NCc2cccc(Cl)c2)c(S(=O)(=O)N2CCSCC2)n1
1060 | COc1ccc(C2(c3nc(C4CC(=O)N(c5ccc(C)cc5)C4)no3)CC2)cc1 (stereo unspecified)
636 | Cc1cc(NC(=O)CC(=O)Nc2ccc3nc4n(c(=O)c3c2)CCCCC4)no1
768 | COCCCNC(=O)C1CCCN(S(=O)(=O)c2ccc(OC)c(C)c2)C1 (stereo unspecified)
730 | CN1C(=O)CCc2cc(NC(=O)c3n[nH]c4ccccc34)ccc21
757 | O=C(Cn1nc(-c2ccccc2)c2cc(Cl)ccc21)N1CCN(c2ccccn2)CC1
816 | O=C(NCc1ccc(F)cc1F)C1CCN(c2nnc(-c3ccccc3)o2)CC1
939 | CCOc1ccc(NC(=O)Nc2nccn(-c3cccc(F)c3)c2=O)cc1
871 | COc1ccc(Cc2nc3nccc(-c4ccc(F)cc4OC)n3n2)cc1
734 | O=C(NCC1Cn2cccc2C(=O)N1Cc1ccccc1)NC1CCCC1 (stereo unspecified)
680 | O=C(CCn1ccc2cc(S(=O)(=O)N3CCCCC3)ccc21)N1CCN(c2ccccn2)CC1
835 | Cn1c(=O)sc2cc(S(=O)(=O)N3CCC(C(=O)Nc4ccccc4)CC3)ccc21
983 | O=C(CN1CN(c2ccccc2)c2ncccc2S1(=O)=O)Nc1cccc(Cl)c1
720 | O=C(NCCc1cccc(F)c1)C1CC(=O)N(c2n[nH]c3cccc(F)c23)C1 (stereo unspecified)
790 | O=C(Nc1ccccc1F)C1CC(=O)N(CCc2c[nH]c3ccc(F)cc23)C1 (stereo unspecified)
672 | CCOC(=O)c1cnc2nc(C)ccc2c1Nc1ccc(F)cc1
1090 | Cc1ccc(-c2nnc(-c3ccccc3Cl)o2)cc1S(=O)(=O)N1CCCC1
642 | Cc1noc(C2CN(C(=O)Cc3noc4ccccc34)C2)n1
629 | O=C(NCC1CC1)c1ccc2nc(-c3ccccc3)cn2c1
1080 | CCCCNC(=O)c1cn(CC)nc1S(=O)(=O)N1CCN(c2ccccc2OCC)CC1
